Assay [1] deals with HEK293T cells. Description: Drug sensitivity assay (CellTiter-Glo viability) with or without MLN4924 pretreatment. Format: cell-based, human. The note with it: Supplementary Table 2; for EC50: Homo sapiens, HEK-293T, HEK293T viability, 72 h, compound alone, read-out: Cellular assays EC50; for Toxicity rescue: MLN4924-mediated cytotoxicity rescue, 10 µM used where n.d. The procedure: HEK293T–Cas9 cells were resuspended at 0.15 × 10^6 ml^−1 treated with DMSO or 100 nM MLN4924 and plated on 384-well plates. After 2 h, the indicated drugs were dispensed with a D300 digital dispenser (Tecan). After 3 days of drug exposure, cell viability was assessed using the CellTiter-Glo luminescent assay (Promega, G7572) on an CLARIOstar Plus, MARS 3.4 (BMG LabTech). Cell viabilities were calculated relative to DMSO controls.

For assay [2], the target named is T1, CDK12–cyclin K and DDB1 (Homo sapiens, UniProt Q16531+Q9NYV4, K965R).
T1 construct: His6–CDK12 (a.a. 713–1,052); full-length or beta-propeller B domain deletion (ΔBPB: a.a. 396–705 deleted) constructs of His6–DDB1ΔBPB, StrepII–Avi–DDB1, or His6–Spy–DDB1; made in house; host or cells: Trichoplusia ni High Five insect cells (baculovirus)
Description: TR-FRET ternary complex formation assay (compound titration). Format: binding. The conditions noted are these: for TR-FRET signal at compound concentration: replicate titrations. The source says:
A 70 μs delay was employed to reduce background fluorescence. The TR-FRET signal was obtained through calculating the ratio of 520 nm to 490 nm fluorescence, and Prism 9 (GraphPad) was used for further data analysis.
(In general: TR-FRET usually uses a lanthanide donor and a delayed reading to cut background.)

Setting [3] is: Supplementary Table 2, read-out: TR-FRET EC50 TR-FRET.
[4] abbreviates: compound concentration 79.2001 nM.
Where [5] appears, read: compound concentration 158.4 nM.
The mark [6] stands for this setting: compound concentration 309.6 nM.
Where [7] appears, read: compound concentration 626.401 nM.
Where [8] appears, read: compound concentration 1252.8 nM.
Where [9] appears, read: compound concentration 9936.01 nM.
Where [10] appears, read: compound concentration 20016 nM.
[11] abbreviates: in vitro complex formation, 50 nM CDK12–cyclin K, 100 nM DDB1, text and figures, read-out: TR-FRET EC50.

As a reminder, the EC50 is the midpoint of the concentration-response curve.

Several values for one entry are separate records, joined by “and”; a condition that tells them apart may be missing. Equal entries are not always repeated. Where two headings read alike, the source gives them in different places. Where only a bound is given, the exact number is not on record here.

T1 sequence (Q9NYV4 713-1052 K965R): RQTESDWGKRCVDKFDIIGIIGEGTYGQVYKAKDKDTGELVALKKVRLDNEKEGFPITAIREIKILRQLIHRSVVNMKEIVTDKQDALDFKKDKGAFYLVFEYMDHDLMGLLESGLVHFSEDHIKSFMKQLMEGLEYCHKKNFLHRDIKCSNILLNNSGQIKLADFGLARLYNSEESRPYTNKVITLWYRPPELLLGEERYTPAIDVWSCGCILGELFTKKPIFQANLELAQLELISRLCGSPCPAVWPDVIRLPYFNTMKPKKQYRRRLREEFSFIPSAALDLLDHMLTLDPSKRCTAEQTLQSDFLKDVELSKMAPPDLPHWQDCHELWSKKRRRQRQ
T1 sequence (O75909 1-267 partner): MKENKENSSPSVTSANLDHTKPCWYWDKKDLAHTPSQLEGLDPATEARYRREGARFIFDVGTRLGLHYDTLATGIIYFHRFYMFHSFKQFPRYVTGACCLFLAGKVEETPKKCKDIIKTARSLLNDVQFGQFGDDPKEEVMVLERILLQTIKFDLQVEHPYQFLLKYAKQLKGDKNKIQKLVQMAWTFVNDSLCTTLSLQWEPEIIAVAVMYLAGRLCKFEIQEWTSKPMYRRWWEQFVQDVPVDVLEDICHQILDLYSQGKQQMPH
T1 sequence (Q16531 whole entry): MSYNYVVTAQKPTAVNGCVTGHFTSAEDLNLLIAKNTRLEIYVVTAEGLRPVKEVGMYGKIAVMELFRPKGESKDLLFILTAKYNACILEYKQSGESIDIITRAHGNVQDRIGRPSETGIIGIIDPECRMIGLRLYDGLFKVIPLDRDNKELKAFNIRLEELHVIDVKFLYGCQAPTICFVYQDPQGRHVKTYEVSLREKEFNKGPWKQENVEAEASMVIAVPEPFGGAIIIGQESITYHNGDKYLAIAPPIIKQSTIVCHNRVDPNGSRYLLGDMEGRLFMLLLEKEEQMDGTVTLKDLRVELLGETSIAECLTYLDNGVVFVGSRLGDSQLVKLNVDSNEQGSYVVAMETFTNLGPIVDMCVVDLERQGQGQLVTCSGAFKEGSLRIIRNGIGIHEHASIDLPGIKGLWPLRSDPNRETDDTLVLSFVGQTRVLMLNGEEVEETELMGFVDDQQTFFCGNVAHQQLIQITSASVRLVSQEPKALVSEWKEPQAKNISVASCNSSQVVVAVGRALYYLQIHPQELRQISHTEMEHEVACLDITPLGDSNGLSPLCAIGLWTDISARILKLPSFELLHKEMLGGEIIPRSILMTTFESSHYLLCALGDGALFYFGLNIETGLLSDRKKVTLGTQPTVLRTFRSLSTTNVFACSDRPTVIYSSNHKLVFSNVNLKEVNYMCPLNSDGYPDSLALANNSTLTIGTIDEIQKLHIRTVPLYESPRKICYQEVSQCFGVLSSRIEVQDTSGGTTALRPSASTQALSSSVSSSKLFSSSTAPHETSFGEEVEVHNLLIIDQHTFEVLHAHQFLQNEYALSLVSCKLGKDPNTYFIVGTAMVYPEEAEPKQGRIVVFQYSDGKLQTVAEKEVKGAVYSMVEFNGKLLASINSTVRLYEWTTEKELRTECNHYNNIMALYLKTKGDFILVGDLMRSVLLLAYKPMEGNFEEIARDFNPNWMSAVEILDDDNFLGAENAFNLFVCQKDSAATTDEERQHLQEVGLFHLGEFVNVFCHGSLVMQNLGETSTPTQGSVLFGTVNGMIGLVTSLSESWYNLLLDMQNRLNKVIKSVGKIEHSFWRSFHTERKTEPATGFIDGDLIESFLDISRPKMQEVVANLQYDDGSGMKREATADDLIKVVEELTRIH

For `CC[C@H](CO)Nc1nc(NCCCCn2c(=O)oc3ccccc32)c2ncn(C(C)C)c2n1` [DS46], the EC50 in assay [1] was > 10000 nM; in assay [2] (setting [3]) it was 627 nM. The Toxicity rescue in assay [1] is 0%. Also, the “TR-FRET signal at compound concentration” value was 0.1284 and 0.1304 in assay [2] (compound concentration 4.68 nM); 0.1505 and 0.151 in assay [2] (compound concentration 21.6 nM); 0.1775 and 0.1803 in assay [2] (compound concentration 36 nM); 0.2245 and 0.2264 in assay [2] (setting [4]); 0.2818 and 0.3032 in assay [2] (setting [5]); 0.3899 and 0.4001 in assay [2] (setting [6]). Further, the “TR-FRET signal at compound concentration” value in assay [2] (setting [7]) was 0.5107 and 0.5141; in assay [2] (setting [8]), 0.639 and 0.6296; in assay [2] (compound concentration 2448 nM), 0.7343 and 0.7319; in assay [2] (setting [9]), 0.8755 and 0.8533; in assay [2] (setting [10]), 0.861 and 0.8686.
With `Cn1cc(-n2cnc3c(NCc4nc5ccccc5[nH]4)nc(N4CCOCC4)nc32)cn1` [DS55], the results for the EC50 in assay [1], in assay [2] (setting [3]) and in assay [2] (setting [11]) were 1030 nM, 35.6 nM and 36 ± 2 nM, respectively. Besides, in assay [1], the Toxicity rescue is 336%. In addition, the TR-FRET signal in assay [2] (compound concentration 0.468 nM) is 0.2624 and 0.2805; in assay [2] (compound concentration 2.16 nM), 0.2884 and 0.3105; in assay [2] (compound concentration 3.6 nM) it was 0.3317 and 0.3563; in assay [2] (compound concentration 7.92001 nM), 0.4199 and 0.4425; in assay [2] (compound concentration 15.84 nM), 0.5444 and 0.5762; in assay [2] (compound concentration 30.96 nM), 0.7696 and 0.7908. The TR-FRET signal in assay [2] (compound concentration 62.6401 nM) was 1.019 and 1.061; in assay [2] (compound concentration 125.28 nM) it was 1.199 and 1.278; in assay [2] (compound concentration 244.8 nM), 1.2725 and 1.386; in assay [2] (compound concentration 993.601 nM) it was 1.352 and 1.424; in assay [2] (compound concentration 2001.6 nM), 1.301 and 1.386. For the same compound, the “TR-FRET signal at compound concentration 0.468 nM” value in assay [2] (compound concentration 0.468 nM, raw replicate titration data) is 0.2624 and 0.2805. Besides, the “TR-FRET signal at compound concentration 2.16 nM” value in assay [2] (compound concentration 2.16 nM, raw replicate titration data) is 0.2884 and 0.3105. Further, the “TR-FRET signal at compound concentration 3.6 nM” value in assay [2] (compound concentration 3.6 nM, raw replicate titration data) was 0.3317 and 0.3563. In assay [2] (compound concentration 7.92001 nM, raw replicate titration data), the “TR-FRET signal at compound concentration 7.92001 nM” value was 0.4199 and 0.4425. Moreover, the “TR-FRET signal at compound concentration 15.84 nM” value in assay [2] (compound concentration 15.84 nM, raw replicate titration data) is 0.5444 and 0.5762. Moreover, in assay [2] (compound concentration 30.96 nM, raw replicate titration data), the “TR-FRET signal at compound concentration 30.96 nM” value was 0.7696 and 0.7908. The “TR-FRET signal at compound concentration 62.6401 nM” value in assay [2] (compound concentration 62.6401 nM, raw replicate titration data) was 1.019 and 1.061. The “TR-FRET signal at compound concentration 125.28 nM” value in assay [2] (compound concentration 125.28 nM, raw replicate titration data) is 1.199 and 1.278. In addition, in assay [2] (compound concentration 244.8 nM, raw replicate titration data), the “TR-FRET signal at compound concentration 244.8 nM” value was 1.2725 and 1.386. Also, the “TR-FRET signal at compound concentration 993.601 nM” value in assay [2] (compound concentration 993.601 nM, raw replicate titration data) is 1.352 and 1.424. Moreover, the “TR-FRET signal at compound concentration 2001.6 nM” value in assay [2] (compound concentration 2001.6 nM, raw replicate titration data) was 1.301 and 1.386.
Regarding `Cn1cc(-n2cnc3c(NCc4cc5ccccc5[nH]4)nc(N4CCOCC4)nc32)cn1` [DS56], in assay [2] (compound concentration 4.68 nM, raw replicate titration data), the “TR-FRET signal at compound concentration 4.68 nM” value was 0.1981 and 0.2221. Moreover, in assay [2] (compound concentration 21.6 nM, raw replicate titration data), the “TR-FRET signal at compound concentration 21.6 nM” value was 0.2108 and 0.2312. Moreover, in assay [2] (compound concentration 36 nM, raw replicate titration data), the “TR-FRET signal at compound concentration 36 nM” value is 0.221 and 0.2484. In assay [2] (compound concentration 79.2001 nM, raw replicate titration data), the “TR-FRET signal at compound concentration 79.2001 nM” value was 0.2309 and 0.2483. Besides, the “TR-FRET signal at compound concentration 158.4 nM” value in assay [2] (compound concentration 158.4 nM, raw replicate titration data) was 0.2488 and 0.2752. For the same compound, the “TR-FRET signal at compound concentration 309.6 nM” value in assay [2] (compound concentration 309.6 nM, raw replicate titration data) is 0.2871 and 0.3205. The “TR-FRET signal at compound concentration 626.401 nM” value in assay [2] (compound concentration 626.401 nM, raw replicate titration data) was 0.3642 and 0.3972. Further, in assay [2] (compound concentration 1252.8 nM, raw replicate titration data), the “TR-FRET signal at compound concentration 1252.8 nM” value was 0.4852 and 0.5291. In addition, in assay [2] (compound concentration 2448 nM, raw replicate titration data), the “TR-FRET signal at compound concentration 2448 nM” value is 0.6251 and 0.6926. In addition, the “TR-FRET signal at compound concentration 9936.01 nM” value in assay [2] (compound concentration 9936.01 nM, raw replicate titration data) is 0.9055 and 1.021. In addition, the “TR-FRET signal at compound concentration 20016 nM” value in assay [2] (compound concentration 20016 nM, raw replicate titration data) is 0.9207 and 1.03. In addition, the EC50 in assay [2] (setting [11]) came out at 2110 ± 252 nM.
For the compound `Cn1cc(-n2cnc3c(NCc4ccc(OCCO)cc4)nc(N4CCOCC4)nc32)cn1` [DS62], the EC50 in assay [1] is > 10000 nM; in assay [2] (setting [3]) it was ~2200 nM; in assay [2] (setting [11]) it was 2200 ± 326 nM. Also, the Toxicity rescue in assay [1] is 0%. The TR-FRET signal in assay [2] (compound concentration 4.68 nM) is 0.2045 and 0.2293; in assay [2] (compound concentration 21.6 nM), 0.2001 and 0.225; in assay [2] (compound concentration 36 nM), 0.2055 and 0.2312; in assay [2] (setting [4]), 0.2131 and 0.2461; in assay [2] (setting [5]) it was 0.2289 and 0.2537; in assay [2] (setting [6]) it was 0.2472 and 0.27. Moreover, the TR-FRET signal was 0.294 and 0.3255 in assay [2] (setting [7]); 0.3562 and 0.4045 in assay [2] (setting [8]); 0.4507 and 0.5009 in assay [2] (compound concentration 2448 nM); 0.6036 and 0.6674 in assay [2] (setting [9]); 0.6334 and 0.6963 in assay [2] (setting [10]). Also, the “DDB1–CDK12 complex formation, result in words” value in assay [2] (in vitro TR-FRET) is “incompatible with the DDB1–CDK12 interface”.
On to `CC[C@H](CO)Nc1nc(NCc2ccccc2)c2ncn(C(C)C)c2n1` [Roscovitine], for which the Toxicity rescue in assay [1] stood at 0%.

(Values after PMC10746543, “Design principles for cyclin K molecular glue degraders” (Nature Chemical Biology, 2023).)
